The test addresses T1, cynomolgus BK1-receptor (Macaca fascicularis, UniProt Q3BCU0).
T1 construct: expressed in transfected cells; host or cells: CHO cells (homogenate)
T1 sequence (Q3BCU0 1-352): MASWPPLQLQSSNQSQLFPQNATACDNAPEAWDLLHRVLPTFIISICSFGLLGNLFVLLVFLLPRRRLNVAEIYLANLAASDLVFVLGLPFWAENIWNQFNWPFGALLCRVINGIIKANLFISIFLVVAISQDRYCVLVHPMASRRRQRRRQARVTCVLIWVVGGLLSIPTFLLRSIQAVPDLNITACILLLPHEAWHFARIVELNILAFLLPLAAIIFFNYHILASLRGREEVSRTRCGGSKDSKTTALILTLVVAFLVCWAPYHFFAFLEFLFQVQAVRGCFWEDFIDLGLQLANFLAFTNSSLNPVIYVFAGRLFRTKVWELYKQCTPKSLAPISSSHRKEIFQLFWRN
The test can be described thus: cynoBK1-receptor binding assay. The following applies: CHO cells expressing cynomolgus BK1-receptor, radioligand kallidine (DesArg10,Leu9); for inhibition at 10 µM: at 10 μgmol/L. Here is the method: Description of the Method of Binding the cynoBK1-Receptor
CHO cells that express the cynomolgus BK1-receptor are cultivated in “HAM'S F-12 Medium”. The medium is removed from confluent cultures, the cells are washed with PBS buffer, scraped off or detached using Versene and isolated by centrifuging. Then the cells are homogenised in suspension, the homogenate is centrifuged and resuspended. After the protein content has been determined 200 μl of the homogenate (50 to 250 μg protein/assay) are incubated for 60-180 minutes at ambient temperature with 0.5 to 5.0 nM kallidine (DesArg10,Leu9), [3,4-Prolyl-3,43H(N)] and increasing concentrations of the test substance in a total volume of 250 μl. The incubation is stopped by rapid filtration through GF/B glass fibre filters that have been pre-treated with polyethyleneimine (0.3%). The radioactivity bound to the protein is measured with a TopCount NXT. The radioactivity bound in the presence of 1.0 μM kallidine (DesArg10) is defined as non-specific binding. The concentration binding curve may be analysed using computer-aided non-linear curve fitting to determine the corresponding Ki value for the test substance.
Test results of the cynoBK1-receptor binding assay: […]

Each structure is given as a SMILES string.

As to `Cc1ncc(C(=O)N[C@@]2(C(=O)NCc3ncc(Nc4ccccc4C(F)(F)F)cc3Cl)CCOC2)cn1` [(292)], affinity was put at a Ki of 7.2 nM.
Regarding `O=C(NC1(C(=O)NCc2ccc(Nc3ccccc3Cl)cc2)CC1)c1cncnc1` [(2)], the Ki is 25 nM and the inhibition at 10 µM amounted to 100%.
Regarding `O=C(Cc1cncnc1)NC1(C(=O)NCc2ccc(Nc3ccccc3C(F)(F)F)cc2)CC1` [(34)], the inhibition constant Ki is more than 500 nM and the inhibition at 10 µM amounted to 94%.
`O=C(NC1(C(=O)NCc2ccc(Nc3ccc(F)cc3C(F)(F)F)cn2)CC1)c1cnc(N2CCCC2)nc1` [(250)] had an inhibition constant Ki of 175 nM.
As to `O=C(NC1(C(=O)NCc2ccc(Nc3ccc(Cl)cc3Cl)cn2)CC1)c1cncnc1` [(166)], the Ki is 45 nM and the inhibition at 10 µM turned out to be 104%.
`O=C(NC1(C(=O)NCc2ccc(Nc3ccc(Cl)cc3C(F)(F)F)cn2)CC1)c1ccc(NC2CC2)nc1` [(389)] returned a Ki of 15 nM.
In turn, `O=C(N[C@@]1(C(=O)NCc2ncc(Nc3ccc(Cl)cc3C(F)(F)F)cc2F)CCOC1)c1cncc(O)c1` [(331)] displayed an inhibitory constant (Ki) of 66 nM.
The same measure, in the same setting: in the case of `COc1cncc(C(=O)NC2(C(=O)NCc3ccc(Nc4ccc(Br)cc4C(F)(F)F)cn3)CC2)c1` [(316)] it was 57 nM; in that of `Cc1cc(Nc2ccc(F)cc2C(F)(F)F)cnc1CNC(=O)[C@]1(NC(=O)c2cncnc2)CCOC1` [(324)], 22 nM.
With `CNc1cncc(C(=O)NC2(C(=O)NCc3ccc(Nc4ccc(F)cc4C(F)(F)F)cn3)CC2)c1` [(270)], the inhibition constant (Ki) is 51 nM.
Take `O=C(NC1(C(=O)NCc2ccc(Nc3ccccc3C(F)(F)F)cc2)CC1)c1cncc(C(F)(F)F)c1` [(26)]: the inhibition at 10 µM was found to be 109%.
Regarding `CC(NC(=O)C1(NC(=O)c2cncnc2)CC1)c1ccc(Nc2ccccc2C(F)(F)F)cn1` (stereo not drawn) [(40)], affinity was put at a Ki of 2.9 nM and the inhibition at 10 µM came out at 110%.
`O=C(NC1(C(=O)NCc2ccc(Nc3ccc(Cl)cc3C(F)(F)F)cn2)CC1)c1cncc(O)c1` [(205)]: the affinity, expressed as Ki, was 17 nM.
Still for that read-out and setting: under `Nc1cncc(C(=O)N[C@@]2(C(=O)NCc3ccc(Nc4ccc(Br)cc4C(F)(F)F)cn3)CCOC2)c1` [(222)] stands 68 nM.
In the case of `O=C(CC(F)(F)F)NC1(C(=O)NCc2ccc(Nc3ccccc3C(F)(F)F)cc2)CC1` [(7)], the inhibition at 10 µM turned out to be 100%.
Turning to `O=C(NC1(C(=O)NCc2ccc(Nc3ccc(F)cc3C(F)(F)F)cn2)CC1)c1cnc2[nH]ccc2c1` [(384)], the inhibition constant (Ki) is 21 nM. This counts as double-digit nanomolar.
With `COc1cc(C(=O)N[C@@]2(C(=O)NCc3ccc(Nc4ccccc4C(F)(F)F)cc3)CCOC2)ccn1` [(79)], the affinity, expressed as Ki, was 292 nM and the inhibition at 10 µM came out at 104%.
With `Nc1ccc(C(=O)N[C@@]2(C(=O)NCc3ncc(Nc4ccc(Cl)cc4C(F)(F)F)cc3Cl)CCOC2)cn1` [(297)], the inhibitory constant (Ki) was determined as 59 nM.
`COc1cncc(C(=O)N[C@@]2(C(=O)NCc3ccc(Nc4ccc(F)cc4C(F)(F)F)cc3)CCOC2)c1` [(381)] had a Ki of 93 nM. Compared with the last compound, the Ki is about 1.6-fold higher.
The same measure, in the same setting: in the case of `Cc1ncc(C(=O)N[C@@]2(C(=O)NCc3ccc(Nc4ccccc4C(F)(F)F)cc3F)CCOC2)cn1` [(279)] it was 5.5 nM; in that of `CCCNc1ccc(C(=O)NC2(C(=O)NCc3ccc(Nc4ccc(Br)cc4C(F)(F)F)cn3)CC2)cn1` [(335)], 28 nM.
As to `O=C(N[C@@]1(C(=O)NCc2ncc(Nc3ccc(Cl)cc3C(F)(F)F)cc2F)CCOC1)c1cncnc1` [(242)], the inhibition constant (Ki) was 15 nM.
As to `COc1ncc(C(=O)N[C@@]2(C(=O)NCc3ccc(Nc4ccccc4C(F)(F)F)cc3)CCOC2)cn1` [(81)], the inhibition at 10 µM was determined as 113%.
In the case of `Cn1cc(C(=O)NC2(C(=O)NCc3ccc(Nc4ccc(Cl)cc4C(F)(F)F)cn3)CC2)cn1` [(373)], the affinity, expressed as Ki, was 95 nM.
Turning to `O=C(N[C@@]1(C(=O)NCc2ccc(Nc3ccc(Cl)cc3C(F)(F)F)cn2)CCOC1)c1cncnc1` [(228)], the inhibition constant (Ki) came to 78 nM.
With `O=C(N[C@@]1(C(=O)NCc2ccc(Nc3ccccc3C(F)(F)F)cc2)CCOC1)c1cnc(O)nc1` [(90)], the inhibitory constant (Ki) turned out to be 135 nM and the inhibition at 10 µM was found to be 109%.
In turn, `O=C(NC1(C(=O)NCc2ccc(Nc3ccc(Cl)cc3C(F)(F)F)cn2)CC1)c1cnsc1` [(358)] yielded a Ki of 37 nM.
With `CC(C(=O)N[C@@]1(C(=O)NCc2ccc(Nc3ccccc3C(F)(F)F)cc2)CCOC1)C(F)(F)F` (stereo partly drawn) [(91)], the inhibition at 10 µM came out at 100%.
Turning to `CN(C)c1ncc(C(=O)NC2(C(=O)NCc3ccc(Nc4ccc(Cl)cc4C(F)(F)F)cn3)CC2)cn1` [(210)], the affinity, expressed as Ki, was 187 nM.
On to `Nc1cncc(C(=O)N[C@@]2(C(=O)NCc3ccc(Nc4ccc(F)cc4C(F)(F)F)cn3)CCOC2)c1` [(157)], for which the Ki was 56 nM and the inhibition at 10 µM turned out to be 96%.
Consider `O=C(N[C@@]1(C(=O)NCc2ncc(Nc3ccc(F)cc3C(F)(F)F)cc2Cl)CCOC1)c1cnc2[nH]cnc2c1` [(220)], for which affinity was put at a Ki of 15 nM.
The compound `CNc1cncc(C(=O)N[C@@]2(C(=O)NCc3ncc(Nc4ccc(Cl)cc4C(F)(F)F)cc3F)CCOC2)c1` [(319)] displayed an inhibition constant (Ki) of 58 nM.
As to `COc1ccc(C(=O)N[C@@]2(C(=O)NCc3ccc(Nc4ccccc4C(F)(F)F)cc3)CCOC2)cc1` [(99)], the inhibition at 10 µM was 96%.
`CNc1cncc(C(=O)N[C@@]2(C(=O)NCc3ccc(Nc4ccc(F)cc4C(F)(F)F)cc3)CCOC2)c1` [(305)] came in with a Ki of 76 nM.
`Cc1ncc(C(=O)NC2(C(=O)NCc3ccc(Nc4ccc(F)cc4C(F)(F)F)cn3)CC2)s1` [(303)] had a Ki of 82 nM.
For `O=C(NC1(C(=O)NCc2ccc(Nc3ccccc3C(F)(F)F)cc2)CC1)c1cnc(O)nc1O` [(9)], the inhibition at 10 µM came to 78%.
`Nc1cncc(C(=O)N[C@@]2(C(=O)NCc3ccc(Nc4ccc(F)cc4C(F)(F)F)cc3)CCOC2)c1` [(214)] yielded an inhibition constant (Ki) of 13 nM.
With `Cn1ccc(C(=O)NC2(C(=O)NCc3ncc(Nc4c(F)cccc4C(F)(F)F)cc3F)CC2)cc1=O` [(132)], the Ki came to 180 nM and the inhibition at 10 µM is 98%.
For the compound `O=C(NC1(C(=O)NCc2ncc(Nc3c(F)cccc3C(F)(F)F)cc2F)CC1)c1cncs1` [(135)], the affinity corresponds to a Ki of 15 nM and the inhibition at 10 µM amounted to 106%.
`Cc1ncc(C(=O)N[C@@]2(C(=O)NCc3ncc(Nc4ccc(Cl)cc4C(F)(F)F)cc3F)CCOC2)cn1` [(277)] showed a Ki of 10 nM.
On to `O=C(N[C@@]1(C(=O)NCc2ccc(Nc3ccccc3C(F)(F)F)cc2)CCOC1)c1cc[nH]n1` [(106)], for which the inhibition at 10 µM came to 69%.
Compound `Nc1cncc(C(=O)N[C@@]2(C(=O)NCc3ccc(Nc4ccc(F)cc4C(F)(F)F)cc3F)CCOC2)c1` [(231)] displayed a Ki of 4.2 nM.
`N#Cc1ncc(C(=O)NC2(C(=O)NCc3ccc(Nc4ccc(Cl)cc4C(F)(F)F)cn3)CC2)cn1` [(385)] registered a Ki of 9.4 nM.
In the case of `O=C(NC1(C(=O)NCc2ccc(Nc3ccccc3C(F)(F)F)cn2)CC[S+]([O-])C1)c1cncnc1` (stereo not drawn) [(194)], the inhibition at 10 µM worked out at 95%.
For the compound `Cc1ncc(C(=O)NC2(C(=O)NCc3ccc(Nc4ccc(Cl)cc4C(F)F)cn3)CC2)cn1` [(386)], the Ki was determined as 15 nM.
Regarding `O=C(NC1(C(=O)NCc2ncc(Nc3c(F)cccc3C(F)(F)F)cc2F)CC1)c1ccnnc1` [(128)], affinity was put at a Ki of 84 nM and the inhibition at 10 µM was determined as 103%.
Consider `CNc1ncc(C(=O)N[C@@]2(C(=O)NCc3ccc(Nc4ccccc4C(F)(F)F)cc3)CCOC2)cn1` [(82)], for which the inhibition at 10 µM came to 107%.

Usually Ki stands for a measure of affinity in units of concentration, obtained from inhibition or displacement. Lower therefore signals a stronger hold on the target. A word on the inhibition: it is the change of the read-out against control, counted positive when it falls.

The values above are taken from US20130131075A1, “NEW COMPOUNDS” (Boehringer Ingelheim International GmbH, priority 2009, published 2013).
